A short description of data set [1]: PROTAC activity at GPX4/E3 ligase in human HT-1080 cells assessed as degradation of GPX4 protein incubated for 24 hrs by Western blotting analysis. Type of data set: cell-based. The settings on record: HT-1080, 24 h. In general terms: A western blot detects proteins with antibodies after separation by electrophoresis.
For data set [2], the system named is Calu-1. In words: Antiproliferative activity against human Calu-1 cells assessed as inhibition of cell growth incubated for 24 hrs by MTT assay. To be noted: Calu-1, 24 h. It counts as functional, cell-based. For orientation: Tetrazolium assays rely on reduction of a dye to a coloured formazan, in cell work by metabolically active cells.
Data set [3] in a line: Antiproliferative activity against HEK293T cells assessed as reduction in cell growth. It counts as toxicity, cell-based, HEK-293T. The settings on record: human.
Data set [4] relates to DU-145. In words: Antiproliferative activity against human DU-145 cells assessed as cell growth inhibition by SRB assay. Type of data set: functional, cell-based.
Data set [5] has as its system 786-0. In words: Antiproliferative activity against human 786-0 cells assessed as cell growth inhibition measured for 48 hrs by SRB assay. The settings on record: 786-0, 48 h. Type of data set: functional, cell-based.
Data set [6] relates to MDA-MB-231. Briefly: Antiproliferative activity against human MDA-MB-231 cells assessed as reduction in cell viability after 48 hrs by SRB assay. Type of data set: functional, cell-based. To be noted: MDA-MB-231, 48 h. Background: In SRB staining, fixed cells bind dye roughly in proportion to their protein.

One may read the DC50 as the concentration at which degradation of the target reaches its halfway point. As a reminder, the IC50 is the point on the concentration scale where inhibition reaches its midpoint.

For the molecule `O=C1CCC(N2C(=O)c3cccc(NCCCCN(C(=O)CCl)C(C(=O)NCc4ccccc4)c4cccs4)c3C2=O)C(=O)N1` (centres undefined), the DC50 in data set [1] is 0.13 µM. Also, the IC50 in data set [2] was 0.86 µM.

Turning to `COC(=O)c1ccc([C@H]2c3[nH]c4ccccc4c3C[C@H](C(=O)OC)N2C(=O)CCl)cc1`, the IC50 in data set [3] stood at 0.31 µM.

With `O=C1CCC(N2C(=O)c3cccc(NCCOCCOCCOCCN(C(=O)CCl)C(C(=O)NCc4ccccc4)c4cccs4)c3C2=O)C(=O)N1` (centres undefined), the DC50 in data set [1] worked out at 0.21 µM. Moreover, the IC50 in data set [2] was 2.93 µM.

Consider `Cc1onc(C(=O)N2CCN(C(c3ccc(Cl)cc3)c3ccc(OCCOCCOCC(=O)NCC45CC6CC(CC(C6)C4)C5)cc3)CC2)c1[N+](=O)[O-]` (centres undefined), for which, in data set [1], the DC50 turned out to be 0.057 µM. The IC50 in data set [4] turned out to be 0.092 µM; in data set [5], 0.125 µM; in data set [6], 0.031 µM.

The values above are taken from ChEMBL document CHEMBL6078717, “An overview of GPX4-targeting TPDs for cancer therapy” (Bioorg Med Chem, 2025).
